In US8575145B2, “Triazolopyridine compounds as PIM kinase inhibitors” (Array BioPharma Inc., priority 2008, dated 2013):
Structures can show the parent of a compound that is named as a salt. Where two headings read alike, the source gives them in different places.

How the values were obtained:
[1] = target: GST-tagged recombinant full-length human PIM-2 (Homo sapiens (Human), UniProt Q9P1W9); test: PIM-2 Enzyme Assay
PIM-1 = PIM-1 (Homo sapiens (Human), UniProt P11309); test: PIM-1 Enzyme Assay; type: biochemical
Procedure: The amount of radiolabeled product is then measured by liquid scintillation counting. The final buffer conditions were as follows: 20 mM K^+MOPS, pH 7.4, 10 mM MgCl2, 0.005% Tween-20, 1 mM DTT. […] Incubations were carried out for 60 min at 22° C. and quenched with 75 μL of 200 mM H3PO4, filtered through a Whatman P81 plate and washed (1×200 μL and 5×100 μL ) with 200 mM H3PO4. Liquid scintillation cocktail (50 μL ) was then added per well, and the plate was counted for 30 s/well using a TopCount NXT.
One-μL aliquots of these were then transferred to the assay mixtures above to give a final concentration of DMSO of 2%. […] For each plate, percent of control (POC) values were calculated for each well. IC50's were estimated from the POC's using a standard 4-parameter logistic model. The IC50 is defined as the concentration of inhibitor at which the POC equals 50 for the fitted curve.

[2] = read-out: PIM-2 IC50, 4 μM ATP, […] PIM-2, dihydrochloride
[3] = read-out: PIM-2 IC50, 4 μM ATP, […] PIM-2
[4] = PIM-2 IC50 (nM), 4 μM ATP, […] PIM-2

Chain of PIM-1 (P11309 whole entry, species assumed): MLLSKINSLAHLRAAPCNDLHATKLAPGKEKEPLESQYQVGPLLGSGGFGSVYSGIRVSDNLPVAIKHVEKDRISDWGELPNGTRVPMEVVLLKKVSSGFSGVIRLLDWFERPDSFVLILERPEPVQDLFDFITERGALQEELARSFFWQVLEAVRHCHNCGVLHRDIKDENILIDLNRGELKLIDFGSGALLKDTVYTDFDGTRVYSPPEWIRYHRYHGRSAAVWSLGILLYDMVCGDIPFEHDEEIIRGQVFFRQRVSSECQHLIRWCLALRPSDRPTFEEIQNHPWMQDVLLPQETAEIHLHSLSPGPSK
Chain of GST-tagged recombinant full-length human PIM-2 (Q9P1W9 whole entry): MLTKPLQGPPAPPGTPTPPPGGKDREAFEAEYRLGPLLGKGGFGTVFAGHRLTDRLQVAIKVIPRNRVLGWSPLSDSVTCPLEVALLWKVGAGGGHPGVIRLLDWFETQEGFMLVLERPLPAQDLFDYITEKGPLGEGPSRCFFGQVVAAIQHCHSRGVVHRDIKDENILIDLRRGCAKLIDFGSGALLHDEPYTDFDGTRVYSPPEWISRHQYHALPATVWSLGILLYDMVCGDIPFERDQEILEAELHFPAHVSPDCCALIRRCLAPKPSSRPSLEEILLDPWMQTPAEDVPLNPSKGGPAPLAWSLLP

IC50 [1, 3] [nM]	IC50 (PIM-1; 35 μM ATP, 0.25 nM PIM-1) [µM]	SMILES	further results
		FC1CNCCC1Oc1cccc2ccc(-c3nnc4ccccn34)nc12 (single isomer, unassigned) [Example 96, 2-([1,2,4]triazolo[4,3-a]pyridin-3-yl)-8-((trans)-3-fluoropiperidin-4-yloxy)quinoline dihydrochloride]	IC50 [1, 2]: 1000 nM; IC50 (PIM-1; dihydrochloride): 0.0108 µM
574	0.0013	CN1CCC(F)C(Oc2cccc3ccc(-c4nnc5ccccn45)nc23)CC1 (stereo not drawn) [Example 119]	
354	0.0142	c1cc(OCC2CNCCO2)c2nc(-c3nnc4ccccn34)ccc2c1 (stereo not drawn) [Example 126]	
384	0.0047	COc1ccc2nnc(-c3ccc4cccc(OCC5(F)CCNCC5)c4n3)n2c1 [Example 109, 8((4-fluoropiperidin-4-yl)methoxy)-2-(6-methoxy-[1,2,4]triazolo[4,3-a]pyridin-3-yl)quinoline dihydrochloride]	
		N[C@H]1CC[C@@H](Oc2cccc3ccc(-c4nnc5ccccn45)nc23)CC1 [Example 42, (cis)-4-(2-([1,2,4]triazolo[4,3-a]pyridin-3-yl)quinolin-8-yloxy)cyclohexanamine]	IC50 [1, 4]: 22 nM
1000	0.0094	FC1(COc2cccc3ccc(-c4nnc5ccccn45)nc23)CNC1 [Example 107, 2-([1,2,4]triazolo[4,3-a]pyridin-3-yl)-8-((3-fluoroazetidin-3-yl)methoxy)quinoline dihydrochloride]	
8940	0.263	Nc1cc(Oc2cccc3ccc(-c4nnc5ccccn45)nc23)ccn1 [Example 75, 4-(2-([1,2,4]triazolo[4,3-a]pyridin-3-yl)quinolin-8-yloxy)pyridin-2-amine]	
1160	0.002	F[C@@H]1CNCC[C@@H]1Oc1cccc2ccc(-c3nnc4ccc(C5CC5)cn34)nc12 (relative stereo) [Example 80, 2-(6-cyclopropyl-[1,2,4]triazolo[4,3-a]pyridin-3-yl)-8-((cis)-3-fluoropiperidin-4-yloxy)quinoline dihydrochloride]	
		FC1CNCCC1Oc1cccc2ccc(-c3nnc4ccccn34)nc12 (single isomer, unassigned) [Example 95, 2-([1,2,4]triazolo[4,3-a]pyridin-3-yl)-8-((cis)-3-fluoropiperidin-4-yloxy)quinoline dihydrochloride]	IC50 [1, 2]: 482 nM; IC50 (PIM-1; dihydrochloride): 0.0098 µM
182		NCC(F)(F)COc1cccc2ccc(-c3nnc4ccccn34)nc12 [Example 41, 3-(2-([1,2,4]triazolo[4,3-a]pyridin-3-yl)quinolin-8-yloxy)-2,2-difluoropropan-1-amine]	
1000	0.013	N#Cc1ccc2nnc(-c3ccc4cccc(O[C@@H]5CCNCC[C@H]5F)c4n3)n2c1 (relative stereo) [Example 101, 3-(8-((trans)-5-fluoroazepan-4-yloxy)quinolin-2-yl)-[1,2,4]triazolo[4,3-a]pyridine-6-carbonitrile dihydrochloride]	
55	0.0002	FC1(COc2cccc3ccc(-c4nnc5ccc(C6CC6)cn45)nc23)CCNCC1 [Example 79, 2-(6-cyclopropyl-[1,2,4]triazolo[4,3-a]pyridin-3-yl)-8-((4-fluoropiperidin-4-yl)methoxy)quinoline dihydrochloride]	
	0.001	FC1CCNCCC1Oc1cccc2ccc(-c3nnc4ccccn34)nc12 (stereo not drawn) [Example 46, 2-([1,2,4]triazolo[4,3-a]pyridin-3-yl)-8-(5-fluoroazepan-4-yloxy)quinoline]	IC50 [1, 4]: 96 nM
1000	0.0058	CCC(CO)COc1cccc2ccc(-c3nnc4ccccn34)nc12 (stereo not drawn) [Example 130]	
484	0.004	COC[C@@H]1CC(Oc2cccc3ccc(-c4nnc5ccccn45)nc23)CCN1 (stereo partly drawn) [Example 57]	
7470	0.063	c1cncc(COc2cccc3ccc(-c4nnc5ccccn45)nc23)c1 [Example 44, 2-([1,2,4]triazolo[4,3-a]pyridin-3-yl)-8-(pyridin-3-ylmethoxy)quinoline]	
76.5		CC(C)(CCN)COc1cccc2ccc(-c3nnc4ccccn34)nc12 [Example 132, 4-(2-([1,2,4]triazolo[4,3-a]pyridin-3-yl)quinolin-8-yloxy)-3,3-dimethylbutan-1-amine]	
10000	0.648	Nc1nccc(Oc2cccc3ccc(-c4nnc5ccccn45)nc23)n1 [Example 76, 4-(2-([1,2,4]triazolo[4,3-a]pyridin-3-yl)quinolin-8-yloxy)pyrimidin-2-amine]	
1350		CN(C)CC(C)(C)COc1cccc2ccc(-c3nnc4ccccn34)nc12 [Example 21, 3-(2-([1,2,4]triazolo[4,3-a]pyridin-3-yl)quinolin-8-yloxy)-N,N,2,2-tetramethylpropan-1-amine]	
362		CC(C)(CNCC(F)(F)F)COc1cccc2ccc(-c3nnc4ccccn34)nc12 [Example 136, 3-(2-([1,2,4]triazolo[4,3-a]pyridin-3-yl)quinolin-8-yloxy)-2,2-dimethyl-N-(2,2,2-trifluoroethyl)propan-1-amine]	
142	0.0016	FC1(COc2cccc3ccc(-c4nnc5ccccn45)nc23)CCCNC1 (stereo not drawn) [Example 133, 2-([1,2,4]triazolo[4,3-a]pyridin-3-yl)-8-((3-fluoropiperidin-3-yl)methoxy)quinoline]	
1730	0.0269	c1cc(OCc2ccncc2)c2nc(-c3nnc4ccccn34)ccc2c1 [Example 45, 2-([1,2,4]triazolo[4,3-a]pyridin-3-yl)-8-(pyridin-4-ylmethoxy)quinoline]	
174	0.0008	CC(C)(CN)COc1cccc2ccc(-c3nnc4ccc(-c5ccccc5)cn34)nc12 [Example 65, 2,2-Dimethyl-3-(2-(6-phenyl-[1,2,4]triazolo[4,3-a]pyridin-3-yl)quinolin-8-yloxy)propan-1-amine dihydrochloride]	
91.5	0.001	COC1(COc2cccc3ccc(-c4nnc5ccccn45)nc23)CCCNCC1 (stereo not drawn) [Example 117, 2-([1,2,4]triazolo[4,3-a]pyridin-3-yl)-8-((4-methoxyazepan-4-yl)methoxy)quinoline dihydrochloride]	
		CC(C)(CN)COc1cccc2ccc(-c3nnc4ccc(Br)cn34)nc12 [Example 63, 3-(2-(6-bromo-[1,2,4]triazolo[4,3-a]pyridin-3-yl)quinolin-8-yloxy)-2,2-dimethylpropan-1-amine dihydrochloride]	IC50 ([1]; read-out: PIM-2 IC50): 101 nM; IC50 (PIM-1): 0.00065 µM
193	0.004	NC(=O)CN1CCC(F)(COc2cccc3ccc(-c4nnc5ccccn45)nc23)CC1 [Example 83, 2-(4-((2-([1,2,4]triazolo[4,3-a]pyridin-3-yl)quinolin-8-yloxy)methyl)-4-fluoropiperidin-1-yl)acetamide]	
191	0.0039	CCN1CCC(F)(COc2cccc3ccc(-c4nnc5ccccn45)nc23)CC1 [Example 104, 2-([1,2,4]triazolo[4,3-a]pyridin-3-yl)-8((1-ethyl-4-fluoropiperidin-4-yl)methoxy)quinoline dihydrochloride]	
1000		CCC(CC)(CO)COc1cccc2ccc(-c3nnc4ccccn34)nc12 [Example 131]	
144		CC(C)(C)COc1cccc2ccc(-c3nnc4ccccn34)nc12 [Example 23, 2-([1,2,4]triazolo[4,3-a]pyridin-3-yl)-8-(neopentyloxy)quinoline]	

SMILES	IC50 [1, 3] [nM]	IC50 (PIM-1; 35 μM ATP, 0.25 nM PIM-1) [µM]	further results
CC(C)(CNC(=O)CF)COc1cccc2ccc(-c3nnc4ccccn34)nc12 [Example 134, N-(3-(2-([1,2,4]triazolo[4,3-a]pyridin-3-yl)quinolin-8-yloxy)-2,2-dimethylpropyl)-2-fluoroacetamide]	952	0.0101	
F[C@@H]1CNCC[C@@H]1Oc1cccc2ccc(-c3nnc4ccc(Br)cn34)nc12 (relative stereo) [Example 78, 2-(6-bromo-[1,2,4]triazolo[4,3-a]pyridin-3-yl)-8-((cis)-3-fluoropiperidin-4-yloxy)quinoline dihydrochloride]		0.008	IC50 ([1]; read-out: PIM-2 IC50): 1280 nM
OC1(COc2cccc3ccc(-c4nnc5ccccn45)nc23)CCCNCC1 (stereo not drawn) [Example 116, 4-((2-([1,2,4]triazolo[4,3-a]pyridin-3-yl)quinolin-8-yloxy)methyl)azepan-4-ol bis-trifluoroacetate]		0.0118	IC50 ([1]; read-out: PIM-2 IC50): 1000 nM
CC(C)C1(COc2cccc3ccc(-c4nnc5ccccn45)nc23)CCNCC1 [Example 70, 2-([1,2,4]triazolo[4,3-a]pyridin-3-yl)-8-((4-isopropylpiperidin-4-yl)methoxy)quinoline dihydrochloride]	67		IC50 (PIM-1): 0.00075 µM
CC(C)(CN)COc1c(Br)ccc2ccc(-c3nnc4ccccn34)nc12 [Example 58, 3-(2-([1,2,4]triazolo[4,3-a]pyridin-3-yl)-7-bromoquinolin-8-yloxy)-2,2-dimethylpropan-1-amine dihydrochloride]	204		IC50 (PIM-1): 0.01 µM
OCCN1CCC(F)(COc2cccc3ccc(-c4nnc5ccccn45)nc23)CC1 [Example 85, 2-(4-((2-([1,2,4]triazolo[4,3-a]pyridin-3-yl)quinolin-8-yloxy)methyl)-4-fluoropiperidin-1-yl)ethanol dihydrochloride]		0.002	IC50 ([1]; read-out: PIM-2 IC50): 105 nM
